# What was measured:
# Str. pneumoniae = test: M.I.C. by Tube Dilution in Nutrient Broth (Examples 1 and 2); assay type: cell-based; conditions: Streptococcus pneumoniae; Str. pneumoniae A9585 (10^-3 dilution of overnight broth culture); 45% Antibiotic Assay Broth + 50% Nutrient Broth + 5% serum
# Excerpt: (§1) *45% Antibiotic Assay Broth + 50% Nutrient Broth + 5% serum
# (§2) **Dilution of overnight broth culture
# Str. pyogenes = test: as above; assay type: cell-based; conditions: Streptococcus pyogenes; Str. pyogenes A9604 (10^-3); 45% Antibiotic Assay Broth + 50% Nutrient Broth + 5% serum
# Excerpt: as §1, §2
# E. coli = test: as above; assay type: cell-based; conditions: Escherichia coli, E. coli A9675 (10^-4)
# Excerpt: (§3) | **Dilution of overnight broth culture
# Ent. cloacae = test: as above; assay type: cell-based; conditions: Enterobacter cloacae
# Excerpt: as §3
# K. pneumoniae [1] = test: as above; assay type: cell-based; conditions: Klebsiella pneumoniae
# Excerpt: as §3
# Pr. mirabilis = test: as above; assay type: cell-based; conditions: Proteus mirabilis; Pr. mirabilis A9900 (10^-4)
# Excerpt: as §3
# Pr. morganii = test: as above; assay type: cell-based; conditions: Morganella morganii; Pr. morganii A15153 (10^-4)
# Excerpt: as §3
# Ps. aeruginosa = test: as above; assay type: cell-based; conditions: Pseudomonas aeruginosa
# Excerpt: as §3
# S. aureus [2] = test: as above; assay type: cell-based; conditions: Staphylococcus aureus
# Excerpt: as §3
# Sal. enteritidis = test: as above; assay type: cell-based; conditions: Salmonella enterica; Sal. enteritidis A9531 (10 ^4)
# Excerpt: as §3
# Ser. marcescens = test: as above; assay type: cell-based; conditions: Serratia marcescens; Ser. marcescens A20019 (10^-4)
# Excerpt: as §3
# D. pneumoniae = test: MIC by Tube Dilution Technique in Nutrient Broth (Example 9 table); assay type: cell-based; conditions: Streptococcus pneumoniae; Dp-4 D. pneumoniae A9585
# Excerpt: (§4) MIC (mcg./ml.) by Tube Dilution Technique in Nutrient Broth.
# E. cloacae = test: as above; assay type: cell-based; conditions: Enterobacter cloacae; El-1 E. cloacae A9656
# Excerpt: as §4
# K. pneumoniae [3] = test: as above; assay type: cell-based; conditions: Klebsiella pneumoniae
# Excerpt: as §4
# S. marcescens = test: as above; assay type: cell-based; conditions: Serratia marcescens; Sm-1 S. marcescens A20019
# Excerpt: as §4
# [4] = test system: Mycobacterium tuberculosis; assay type: cell-based
# [5] = test system: Escherichia coli, Klebsiella pneumoniae, Proteus mirabilis, Proteus vulgaris, Salmonella sp., Shigella sp. and Neisseria meningitidis; test: Growth inhibitory activity, antibiotic dilution technique (text summary); assay type: cell-based; conditions: growth inhibitory activity vs cephalothin, cephaloridine, cefazolin
# [6] = Stability in solution, 0.005 M phosphate buffer pH 7.4, 37° C.; assay type: physicochemical; conditions: pH 7.4 and 37° C.
# Method: Stability in Solution. Stability in solution was determined at 37° C. in 0.005 M phosphate buffer of pH 7.4. […] Residual antibiotic activity was determined periodically over a 24-hour period by a turbidimetric assay procedure or by an antibiotic diffusion technique (cephalothin).
# [7] = Solubility in water, buffer or urine; conditions: soluble as Na^+ salt, as Na^+ salt
# S. aureus [8] = test: Growth inhibitory activity, antibiotic dilution technique; conditions: 63 strains tested
# S. pneumoniae = test: as above; conditions: Streptococcus pneumoniae, read-out: concentration inhibiting all strains
# S. pyogenes = test: as above; conditions: Streptococcus pyogenes, read-out: concentration inhibiting all strains
# S. viridans = test: as above; conditions: Streptococcus viridans, read-out: concentration inhibiting all strains
# Streptococcus faecalis = test: as above
# [9] = test system: Enterobacter sp. and Citrobacter sp.; test: Growth inhibitory activity, antibiotic dilution technique (text summary); conditions: compared with cephalothin, cephaloridine, cefazolin
compound,measurement,setting,value
NCc1ccccc1CC(=O)N[C@@H]1C(=O)N2C(C(=O)O)=C(CSc3nnnn3CC(=O)O)CS[C@H]12 [Example 1],MIC,Str. pneumoniae,0.13 µg/mL
same,MIC,Str. pyogenes,0.13 µg/mL
same,MIC,E. coli,16 µg/mL
same,MIC,Ent. cloacae; Ent. cloacae A9657 (10^-4),0.25 µg/mL
same,MIC,Ent. cloacae; Ent. cloacae A9659 (10^-4),32 µg/mL
same,MIC,Ent. cloacae; Ent. cloacae A9656 (10^-4),> 125 µg/mL
same,MIC,K. pneumoniae [1]; K. pneumoniae A9977 (10^-4),0.13 µg/mL
same,MIC,K. pneumoniae [1]; K. pneumoniae A15130 (10^-4),2 µg/mL
same,MIC,Pr. mirabilis,0.13 µg/mL
same,MIC,Pr. morganii,32 µg/mL
same,MIC,Ps. aeruginosa,> 125 µg/mL
same,MIC,S. aureus [2]; S. aureus BX1633 A9606 (10^-2),2 µg/mL
same,MIC,S. aureus [2]; S. aureus BX1633 A9606 (10^-3),1 µg/mL
same,MIC,S. aureus [2]; S. aureus Meth-Res A15097 (10^-3),4 µg/mL
same,MIC,S. aureus [2]; S. aureus Smith A9537 (10^-4),1 µg/mL
same,MIC,S. aureus [2]; S. aureus-50% serum A9537 (10^-4),4 µg/mL
same,MIC,Sal. enteritidis,0.06 µg/mL
same,MIC,Ser. marcescens,125 µg/mL
same,MIC,D. pneumoniae,0.16 µg/mL
same,MIC,E. cloacae,50 µg/mL
same,MIC,K. pneumoniae [3]; Kp-3 K. pneumoniae A9977,0.2 µg/mL
same,MIC,K. pneumoniae [3]; Kp-4 K. pneumoniae A15130,1.6 µg/mL
same,MIC,S. marcescens,> 100 µg/mL
same,times more active than the control compounds,[4],4 to 32
same,times more active than the reference cephalosporins,[5],2 to 16
same,half-life,[6],> 24 h
same,solubility,[7],≥ 250 mg/mL
same,number of strains of S. aureus inhibited,S. aureus [8]; at 4 mcg./ml.,62 strains
same,number of strains of S. aureus inhibited,S. aureus [8]; at 8 mcg./ml.,63 strains
same,MIC,S. pneumoniae,0.25 µg/mL
same,MIC,S. pyogenes,0.5 µg/mL
same,MIC,S. viridans,4 µg/mL
same,susceptibility of Streptococcus faecalis,Streptococcus faecalis,resistant
same,activity against Enterobacter sp. and Citrobacter sp.,[9],alone was active
